The text below walks through data of US4605651A, “Antibiotic amino acid derivatives of cephalosporins” (Kyoto Pharmaceutical Industries, Ltd., priority 1982, dated 1986).

Counter-ions that a name gives are not always drawn.

Data set [1] can be described thus: Acute toxicity testing, oral, in mice. Particulars: mouse, in vivo, aqueous solution, male ICR mice 5 weeks of age, n=3. As for the experimental part:
The results obtained in oral acute toxicity testing of the cephalosporin derivatives according to the present invention in mice are shown below.
Animals: Male mice (ICR, 5 weeks of age), n=3
Method of administration: The cephalosporin derivatives obtained in the above examples were dissolved in distilled water and the aqueous solutions were orally administered.

On the set-up of data set [2]: species or system humans. The note with it: human, in vivo, po, 480 min. An excerpt: In humans, oral administration of the cephalosporin derivatives according to the present invention led to urinary recovery of the corresponding unesterified cephalosporins at the recovery rates shown below in the table. Method of administration: A 125-mg (on the unesterified form basis) capsule was orally administered. Assay: Microbial method using Bacillus subtilis

With `Cn1nnnc1SCC1=C(C(=O)OCOC(=O)C(C)(C)C)N2C(=O)C(NC(=O)[C@H](OC(=O)CN)c3ccccc3)C2SC1` (stereo partly drawn) [Example 1, pivaloyloxymethyl 7-[D-O-(glycyl)mandelamido]-3-[(1-methyl-1H-tetrazol-5-yl)thiomethyl]-3-cephem-4-carboxylate hydrochloride], the LD50 in data set [1] worked out at 5000 mg/kg. For the same compound, in data set [2], the “Percent urinary recovery (Hour 0 to Hour 8)” value (shortened to “Percent urinary recovery”) is 38.0%.
Turning to `CC(=O)OC(C)OC(=O)C1=C(CSc2nnc(C)s2)CSC2C(NC(=O)[C@H](OC(=O)[C@H](C)N)c3ccccc3)C(=O)N12` (stereo partly drawn) [Example 2, 1-acetoxyethyl 7-[D-O-(L-alanyl)mandelamido]-3-[(5-methyl-1,3,4-thiadiazol-2-yl)thiomethyl]-3-cephem-4-carboxylate hydrochloride], in data set [2], the “Percent urinary recovery” value stood at 35.2%.
The same measure, in the same setting: the figure for `CCOC(=O)OC(C)OC(=O)C1=C(CSc2nncs2)CSC2C(NC(=O)[C@H](OC(=O)[C@H](C)N)c3ccccc3)C(=O)N12` (stereo partly drawn) [Example 3, 1-ethoxycarbonyloxyethyl 7-[D-O-(L-alanyl)mandelamido]-3-[(1,3,4-thiadiazol-2-yl)thiomethyl]-3-cephem-4-carboxylate] is 37.0%.
Still for that read-out and setting: the figure for `Cc1nnc(SCC2=C(C(=O)OCOC(=O)C(C)(C)C)N3C(=O)C(NC(=O)[C@H](OC(=O)[C@@H](N)C(C)C)c4ccccc4)C3SC2)s1` (stereo partly drawn) [Example 6, Pivaloyloxymethyl 7-[D-O-(L-valyl)mandelamido]-3-[(5-methyl-1,3,4-thiadiazol-2-yl)thiomethyl]-3-cephem-4-carboxylate hydrochloride] is 36.0%.
Compound `Cc1nnc(SCC2=C(C(=O)OCOC(=O)C(C)(C)C)N3C(=O)C(NC(=O)[C@H](OC(=O)[C@@H]4CCCN4)c4ccccc4)C3SC2)s1` (stereo partly drawn) [Example 7, Pivaloyloxymethyl 7-[D-O-(L-prolyl)mandelamido]-3-[(5-methyl-1,3,4-thiadiazol-2-yl)thiomethyl]-3-cephem-4-carboxylate hydrochloride] showed an LD50 in data set [1] of 5000 mg/kg. In addition, the “Percent urinary recovery” value in data set [2] came to 41.0%.
On the same counts, the results for `Cc1nnc(SCC2=C(C(=O)OCc3oc(=O)oc3C)N3C(=O)C(NC(=O)[C@H](OC(=O)[C@H](C)N)c4ccccc4)C3SC2)s1` (stereo partly drawn) [Example 9, (5-Methyl-1,3-dioxolen-2-on-4-ylmethyl) 7-[D-O-(L-alanyl)mandelamido]-3-[(5-methyl-1,3,4-thiadiazol-2-yl)thiomethyl]-3-cephem-4-carboxylate hydrochloride] are 5000 mg/kg and 41.0%.
Consider `CC(=O)OC(C)OC(=O)C1=C(CSc2nnc(C)s2)CSC2C(NC(=O)[C@H](OC(=O)[C@@H]3CCCN3)c3ccccc3)C(=O)N12` (stereo partly drawn) [Example 17, 1-Acetoxyethyl 7-[D-O-(L-prolyl)mandelamido]-3-[(5-methyl-1,3,4-thiadiazol-2-yl)thiomethyl]-3-cephem-4-carboxylate hydrochloride], for which the LD50 in data set [1] turned out to be 5000 mg/kg. In addition, in data set [2], the “Percent urinary recovery” value is given as 40.9%.

As a reminder, the LD50 is the dose expected to kill half of the subjects tested.
